Results from publication PMC7138307 (PLoS ONE, 2020).

Columns and labels:
[1] = biological target: T1, TAO1 (Mus musculus, UniProt Q5F2E8); assay: Ex vivo KiNativ ATP/ADP probe competition in mouse cortical brain lysates; type: binding; conditions: TNEVVAIKK; Lys1; ADP probe
T1 construct: from tissue; host or cells: mouse cortical brain lysate
T1 sequence (Q5F2E8 1-1001): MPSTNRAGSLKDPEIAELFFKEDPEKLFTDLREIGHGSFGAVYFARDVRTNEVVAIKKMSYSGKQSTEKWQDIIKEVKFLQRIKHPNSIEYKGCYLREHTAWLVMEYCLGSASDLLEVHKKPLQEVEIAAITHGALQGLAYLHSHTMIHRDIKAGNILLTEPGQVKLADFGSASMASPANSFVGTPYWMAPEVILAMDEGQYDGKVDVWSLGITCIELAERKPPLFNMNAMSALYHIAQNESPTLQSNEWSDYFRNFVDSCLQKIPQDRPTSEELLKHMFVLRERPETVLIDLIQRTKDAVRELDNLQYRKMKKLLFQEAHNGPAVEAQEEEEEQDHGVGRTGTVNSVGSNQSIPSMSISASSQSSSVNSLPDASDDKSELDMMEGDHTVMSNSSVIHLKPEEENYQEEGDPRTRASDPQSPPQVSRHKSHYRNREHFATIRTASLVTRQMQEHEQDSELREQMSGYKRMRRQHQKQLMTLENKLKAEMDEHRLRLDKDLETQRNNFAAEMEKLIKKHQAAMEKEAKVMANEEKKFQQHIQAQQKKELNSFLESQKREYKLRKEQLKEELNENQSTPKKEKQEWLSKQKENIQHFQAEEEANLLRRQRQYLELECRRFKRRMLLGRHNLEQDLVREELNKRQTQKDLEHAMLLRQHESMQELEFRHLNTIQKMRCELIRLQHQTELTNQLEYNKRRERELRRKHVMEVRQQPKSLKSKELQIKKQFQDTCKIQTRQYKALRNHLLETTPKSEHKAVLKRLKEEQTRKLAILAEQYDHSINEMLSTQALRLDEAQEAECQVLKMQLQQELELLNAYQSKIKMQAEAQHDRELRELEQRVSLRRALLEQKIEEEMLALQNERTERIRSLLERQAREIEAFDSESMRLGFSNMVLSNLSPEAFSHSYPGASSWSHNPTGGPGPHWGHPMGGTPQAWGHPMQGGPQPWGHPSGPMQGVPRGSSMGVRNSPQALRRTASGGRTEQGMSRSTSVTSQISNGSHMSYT

[2] = tested on: TTBK1, TTBK2; assay: In vivo target engagement, KiNativ ADP probe, mouse brain lysates; conditions: 75 mg/kg I.P., one hour, peptide DIKPSNFAMGR, Lys2
Description: (§1) To determine both in vivo target engagement and identify any potential off-target kinases inhibited by BIIB-TTBKi, we used a combination of desthiobiotin-ATP/ADP probes to covalently bind and biotinylate the conserved lysine residues at the active site of protein kinases (ActivX-KiNativ; Kyorin Pharmaceuticals, Ltd, Tokyo Japan). […] Lysates were trypsin digested and desthiobiotinylated peptides were captured on streptavidin beads. A list of 269 unique peptides were quantified through LC-MS/MS parallel reaction monitoring method. Target engagement was calculated as the percentage of peptide signal lost after addition of BIIB-TTBKi when compared to the vehicle treated lysate. Using the ADP probe, we were able to detect a total of 150 kinases in the mouse cortical brain lysates (Fig 5A).
(§2) Mice were euthanized one hour following injection and homogenized brain lysates were labeled with Desthiobiotin-ADP-acyl phosphate probe (ADP probe). Desthiobiotinylated peptides were captured on streptavidin beads and peptides were quantified through LC-MS/MS parallel reaction monitoring method. Target engagement was calculated as the percentage of peptide signal lost when compared to the vehicle treated lysate. (A) Visualization of the off-target effects of BIIB-TTBKi at 75mg/kg. The ADP probe labelled around 150 unique kinases in mouse cortical brain lysates.

[3] = biological target: T2, PIP5K3 (Mus musculus, UniProt Q9Z1T6); assay: as above; conditions: 75 mg/kg I.P., one hour, peptide GGKSGAAFYATEDDRFILK, ATP site
T2 construct: homogenized brain lysates were labeled with Desthiobiotin-ADP-acyl phosphate probe; from tissue; host or cells: mouse cortical brain lysate
Description: as §1, §2

[4] = biological target: T3, PIP4K2C (Mus musculus, UniProt Q91XU3); assay: as above; conditions: 75 mg/kg I.P., one hour, peptide TLVIKEVSSEDIADMHSNLSNYHQYIVK, ATP site
T3 construct: from tissue; host or cells: mouse cortical brain lysate
T3 sequence (Q91XU3 1-421): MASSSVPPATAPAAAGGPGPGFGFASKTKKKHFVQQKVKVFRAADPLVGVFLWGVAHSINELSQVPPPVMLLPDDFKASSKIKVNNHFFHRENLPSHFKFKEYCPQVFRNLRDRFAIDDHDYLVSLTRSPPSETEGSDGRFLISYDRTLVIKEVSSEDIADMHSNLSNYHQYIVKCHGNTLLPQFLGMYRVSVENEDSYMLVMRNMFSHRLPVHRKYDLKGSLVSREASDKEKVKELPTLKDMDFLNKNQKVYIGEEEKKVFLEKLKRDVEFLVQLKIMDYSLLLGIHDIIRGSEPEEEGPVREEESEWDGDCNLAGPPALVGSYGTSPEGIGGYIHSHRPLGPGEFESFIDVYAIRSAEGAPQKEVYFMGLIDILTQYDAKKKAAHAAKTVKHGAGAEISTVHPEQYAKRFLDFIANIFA
Description: as §1, §2

[5] = biological target: T4, FES (Mus musculus, UniProt P16879); assay: as above; conditions: 75 mg/kg I.P., one hour, peptide LRADNTPVAVKSCR, Lys1
T4 construct: homogenized brain lysates were labeled with Desthiobiotin-ADP-acyl phosphate probe; from tissue; host or cells: mouse cortical brain lysate
Description: as §1, §2

T4 sequence (P16879 whole entry): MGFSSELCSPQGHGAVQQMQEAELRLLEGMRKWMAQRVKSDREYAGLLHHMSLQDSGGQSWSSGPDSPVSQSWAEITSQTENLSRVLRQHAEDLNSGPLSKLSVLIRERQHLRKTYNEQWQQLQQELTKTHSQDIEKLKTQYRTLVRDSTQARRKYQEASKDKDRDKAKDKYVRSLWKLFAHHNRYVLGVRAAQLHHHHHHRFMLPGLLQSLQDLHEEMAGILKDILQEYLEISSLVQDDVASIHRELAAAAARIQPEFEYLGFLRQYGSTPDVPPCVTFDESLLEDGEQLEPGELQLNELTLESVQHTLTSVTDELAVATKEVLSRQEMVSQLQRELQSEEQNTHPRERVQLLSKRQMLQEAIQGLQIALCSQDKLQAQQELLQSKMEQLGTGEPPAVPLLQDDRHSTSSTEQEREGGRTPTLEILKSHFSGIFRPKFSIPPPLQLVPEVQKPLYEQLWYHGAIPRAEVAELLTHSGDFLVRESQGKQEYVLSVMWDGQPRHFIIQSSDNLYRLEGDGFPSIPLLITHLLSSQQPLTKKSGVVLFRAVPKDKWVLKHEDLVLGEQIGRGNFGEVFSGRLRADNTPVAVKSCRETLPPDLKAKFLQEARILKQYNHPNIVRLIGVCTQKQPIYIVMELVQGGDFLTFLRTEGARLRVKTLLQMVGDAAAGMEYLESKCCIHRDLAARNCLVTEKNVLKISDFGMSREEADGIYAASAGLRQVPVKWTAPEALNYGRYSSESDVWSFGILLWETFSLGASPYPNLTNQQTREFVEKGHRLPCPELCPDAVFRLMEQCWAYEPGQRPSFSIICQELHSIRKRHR
T2 sequence (Q9Z1T6 whole entry): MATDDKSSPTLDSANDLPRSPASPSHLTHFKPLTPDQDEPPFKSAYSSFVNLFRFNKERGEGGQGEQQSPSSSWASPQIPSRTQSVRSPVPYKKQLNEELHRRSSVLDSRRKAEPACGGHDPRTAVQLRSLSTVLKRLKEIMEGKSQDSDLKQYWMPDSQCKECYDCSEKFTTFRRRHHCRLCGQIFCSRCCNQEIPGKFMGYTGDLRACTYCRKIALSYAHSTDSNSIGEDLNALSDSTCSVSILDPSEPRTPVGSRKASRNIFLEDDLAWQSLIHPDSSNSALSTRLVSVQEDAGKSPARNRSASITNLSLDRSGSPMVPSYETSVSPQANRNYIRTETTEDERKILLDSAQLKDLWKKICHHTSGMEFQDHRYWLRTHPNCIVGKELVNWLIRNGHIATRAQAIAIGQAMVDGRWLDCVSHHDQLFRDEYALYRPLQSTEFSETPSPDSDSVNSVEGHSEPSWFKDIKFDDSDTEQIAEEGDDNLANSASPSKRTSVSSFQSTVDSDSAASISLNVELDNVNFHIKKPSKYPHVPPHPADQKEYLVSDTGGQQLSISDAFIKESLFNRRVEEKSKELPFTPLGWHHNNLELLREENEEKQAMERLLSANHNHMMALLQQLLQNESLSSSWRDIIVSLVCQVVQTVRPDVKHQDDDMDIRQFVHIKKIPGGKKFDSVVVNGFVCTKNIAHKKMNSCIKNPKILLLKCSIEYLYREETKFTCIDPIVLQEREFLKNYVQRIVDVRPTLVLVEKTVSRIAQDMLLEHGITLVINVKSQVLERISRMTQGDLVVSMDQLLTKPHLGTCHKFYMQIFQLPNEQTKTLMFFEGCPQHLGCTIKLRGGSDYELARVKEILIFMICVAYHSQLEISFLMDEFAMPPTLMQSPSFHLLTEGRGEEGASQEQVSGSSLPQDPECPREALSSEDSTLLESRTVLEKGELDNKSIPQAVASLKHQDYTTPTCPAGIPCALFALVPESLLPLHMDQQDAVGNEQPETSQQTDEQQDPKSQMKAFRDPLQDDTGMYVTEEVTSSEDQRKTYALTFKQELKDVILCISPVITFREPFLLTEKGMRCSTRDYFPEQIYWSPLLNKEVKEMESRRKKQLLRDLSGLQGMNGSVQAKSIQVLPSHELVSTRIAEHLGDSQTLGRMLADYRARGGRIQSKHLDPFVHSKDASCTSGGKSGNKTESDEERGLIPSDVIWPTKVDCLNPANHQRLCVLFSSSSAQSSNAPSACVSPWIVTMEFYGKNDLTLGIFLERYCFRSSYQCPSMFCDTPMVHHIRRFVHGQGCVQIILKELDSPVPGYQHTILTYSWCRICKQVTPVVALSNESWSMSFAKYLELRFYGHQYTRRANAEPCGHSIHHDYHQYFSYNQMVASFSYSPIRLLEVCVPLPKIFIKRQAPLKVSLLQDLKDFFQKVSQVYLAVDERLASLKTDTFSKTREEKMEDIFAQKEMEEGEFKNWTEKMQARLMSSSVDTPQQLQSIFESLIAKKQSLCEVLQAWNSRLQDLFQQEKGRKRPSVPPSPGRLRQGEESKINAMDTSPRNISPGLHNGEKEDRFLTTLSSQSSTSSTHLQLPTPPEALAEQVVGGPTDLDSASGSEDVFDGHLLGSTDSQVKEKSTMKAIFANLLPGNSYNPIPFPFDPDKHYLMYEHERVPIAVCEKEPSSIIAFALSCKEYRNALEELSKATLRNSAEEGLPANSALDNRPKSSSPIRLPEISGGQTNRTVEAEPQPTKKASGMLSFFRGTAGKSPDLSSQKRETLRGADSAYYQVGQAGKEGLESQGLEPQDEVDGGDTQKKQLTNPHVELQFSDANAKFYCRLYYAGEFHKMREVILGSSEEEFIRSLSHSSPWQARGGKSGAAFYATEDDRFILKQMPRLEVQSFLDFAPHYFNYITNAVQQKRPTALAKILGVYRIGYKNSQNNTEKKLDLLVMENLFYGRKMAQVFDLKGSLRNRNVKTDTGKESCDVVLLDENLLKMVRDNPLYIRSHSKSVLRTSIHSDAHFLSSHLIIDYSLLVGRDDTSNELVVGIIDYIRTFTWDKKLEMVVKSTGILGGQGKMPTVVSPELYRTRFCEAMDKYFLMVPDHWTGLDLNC

SMILES: CCC(C)(O)C#Cc1cc2c(ccn2-c2ccnc(N)n2)cn1 (centres unmarked) [BIIB-TTBK1i]
- Percent Inhibition at 1μM [1]: 75.9%
- Percent Inhibition with BIIB-TTBKi at 75mpk [2]: 82%
- Percent Inhibition with BIIB-TTBKi at 75mpk [3]: 90%
- Percent Inhibition with BIIB-TTBKi at 75mpk [4]: 86.3%
- Percent Inhibition with BIIB-TTBKi at 75mpk [5]: 50.6%
